Source: patent US9402821B2, “Methods and pharmaceutical compositions for treatment of cystic fibrosis” (INSERM (Institut National de la sante et de la Recherche …, priority 2012, dated 2016)
Entries after “also recorded” stand apart in the source; their conditions may differ.

How the values were obtained:
Assay type in all cases: cell-based
[1] = test system: IκB; assay: Western blot of cytosolic IκB after TNFα; settings: HeLa control cells; 500 μM 1 h pre-treatment; TNFα 10 ng/ml 30 min
Experimental: (§1) HeLa control cells were pre-treated with diluent (0.5%) or sulindac (500 μM) for 1 h and stimulated or not with 10 ng/ml TNFα for 30 min. Nuclear and cytosolic fractions were obtained by differential centrifugation. A. Analysis by western blot of cytosolic IKb quantity. The Iκb quantity was expressed in percent of control. […] B. Analysis by western blot of nuclear p65 quantity. Nuclear p65 quantity was expressed in percent of diluents+TNFα.
(§2) Nuclear and cytosolic fraction was obtained by differential centrifugation. Briefly, cells were lyses in buffer C (10 mM Hepes, 60 mM KCl, 1 mM EDTA, 7.8% NP40, 100 mM DTT, pH 7.6). After centrifugation, nucleus pellet were lyses in buffer N (27 mM Tris, 566 mM NaCl, 2 mM MgCl2, 1.3 mM EDTA, pH 8). Aliquots of fraction (30 μg protein) were separated by SDS-PAGE and transferred on PVDF membrane. The western blots were probed with mouse monoclonal antibodies specific for IκB or p65 (Santa-Cruz) 2 h at room temperature.

[2] = test system: p65; assay: Western blot of nuclear p65 after TNFα; settings: HeLa control cells; 500 μM 1 h pre-treatment; TNFα 10 ng/ml 30 min
Experimental: as §1, §2

[3] = molecular target: CFTR (Homo sapiens, UniProt P13569); assay: Short circuit current, cAMP-dependent Cl secretion (forskolin + IBMX) in HNEC; design: Nasal polyps were obtained from non-CF requiring surgery for their nasal polyposis; endogenous in cells; host or cells: primary human nasal epithelial cells (HNEC) from nasal polyps of non-CF patients; settings: primary HNEC, air-liquid interface, 500 μM basolateral, 2 h, mean SEM of five filters
CFTR, sequence (P13569 whole entry): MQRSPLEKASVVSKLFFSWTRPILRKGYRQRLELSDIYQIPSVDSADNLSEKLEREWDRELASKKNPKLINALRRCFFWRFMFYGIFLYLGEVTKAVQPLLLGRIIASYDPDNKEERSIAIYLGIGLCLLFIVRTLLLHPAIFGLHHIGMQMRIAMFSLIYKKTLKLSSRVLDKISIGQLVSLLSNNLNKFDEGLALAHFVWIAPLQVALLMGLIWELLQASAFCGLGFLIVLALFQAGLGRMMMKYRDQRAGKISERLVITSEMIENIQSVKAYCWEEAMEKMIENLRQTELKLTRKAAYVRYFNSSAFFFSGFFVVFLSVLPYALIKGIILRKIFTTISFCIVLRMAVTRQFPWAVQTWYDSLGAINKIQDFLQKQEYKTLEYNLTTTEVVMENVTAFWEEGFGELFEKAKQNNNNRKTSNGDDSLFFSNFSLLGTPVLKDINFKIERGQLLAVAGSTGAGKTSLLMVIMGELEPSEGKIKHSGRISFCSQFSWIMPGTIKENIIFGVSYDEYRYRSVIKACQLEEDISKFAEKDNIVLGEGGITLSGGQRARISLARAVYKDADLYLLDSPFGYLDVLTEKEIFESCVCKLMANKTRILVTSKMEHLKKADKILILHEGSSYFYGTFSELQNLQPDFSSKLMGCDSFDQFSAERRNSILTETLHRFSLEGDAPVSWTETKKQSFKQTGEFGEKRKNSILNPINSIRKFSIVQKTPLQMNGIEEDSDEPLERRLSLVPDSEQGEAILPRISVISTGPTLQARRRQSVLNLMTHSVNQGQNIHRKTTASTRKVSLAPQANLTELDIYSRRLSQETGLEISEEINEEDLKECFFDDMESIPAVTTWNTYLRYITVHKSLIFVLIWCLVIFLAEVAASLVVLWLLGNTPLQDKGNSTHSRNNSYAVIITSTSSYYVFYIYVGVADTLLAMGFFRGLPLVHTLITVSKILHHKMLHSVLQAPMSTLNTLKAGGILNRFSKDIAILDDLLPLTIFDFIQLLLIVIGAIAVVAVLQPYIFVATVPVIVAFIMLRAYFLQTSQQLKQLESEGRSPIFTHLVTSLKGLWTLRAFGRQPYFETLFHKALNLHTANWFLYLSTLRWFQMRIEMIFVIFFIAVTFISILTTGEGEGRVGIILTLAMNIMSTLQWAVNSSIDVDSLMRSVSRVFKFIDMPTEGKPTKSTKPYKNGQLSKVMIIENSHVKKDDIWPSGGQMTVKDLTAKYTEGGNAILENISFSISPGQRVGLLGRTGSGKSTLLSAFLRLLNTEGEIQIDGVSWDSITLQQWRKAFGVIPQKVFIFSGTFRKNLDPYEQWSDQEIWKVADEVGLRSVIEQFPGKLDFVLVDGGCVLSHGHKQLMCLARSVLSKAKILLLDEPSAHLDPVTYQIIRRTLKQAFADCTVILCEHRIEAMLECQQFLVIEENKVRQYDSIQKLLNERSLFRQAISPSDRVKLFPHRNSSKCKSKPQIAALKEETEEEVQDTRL
Experimental: B. Chloride activity in HeLa Wt cells was measured by MQAE assay, after 3 h of treatment by NSAID (500 μM) or diluent. CFTR activity was expressed in rate of UFA/sec, calculated by difference between ((Ft−F0)/t) with CFTR induction and ((Ft−F0)/t) without CFTR induction. […] C. Primary culture of human nasal epithelial cell (HNEC) grown on Snapwell filters (air-liquid interface) were exposed basolaterally to sulindac (500 μM) or vehicle for 2 h and immediately mounted into a voltage-clamp system to bioelectric measurements. Short circuit current was measured with addition of amiloride to evaluated amiloride sensitive transport or with forskolin and IBMX for induced cAMP-dependent Cl secretion.
Two cell models were used to the interface air-liquid model for ionic efflux assays by short circuit current and to dose the basolateral IL-8 secretion. Calu-3 are derived from lung adenocarcinoma and are able to polarized and express a high rate of endogenous CFTR. […] Transepithelial resistance and transepithelial potential difference were measured every 3 days using a microvoltmeter (World Precision Instruments, Astonbury, UK).
Cells were grown at 37° C. in a 5% CO2 incubator in DMEM with Glutamax (Invitrogen) and 10% fetal bovine serum (SVF). […] The effects of treatment in HNEC cultures on snapwell inserts were evaluated between days 10 and 16. […]

[4] = test system: AP-1 transcriptional activity; assay: AP-1 firefly luciferase reporter assay, TNFα-stimulated HeLa cells; settings: 500 μM, TNFα 10 ng/ml
Experimental: HeLa cells were transiently transfected by AP-1 firefly luciferase reporter and renilla luciferase reference. HeLa control cells were pre-treated with diluent (0.5%), ibuprofen (500 μM) or sulindac (500 μM) for 1 h and stimulated for 1 h with 10 ng/ml TNFα. After removal of TNFα, cells were incubated for 4 h with pharmacological treatment. The AP-1 transcriptional activity in cells treated with ibuprofen+TNFα and sulindac +TNFα was expressed in percent of diluent+TNFα. Results of three independent experiments, means±SEM. Unilateral paired t test: ** p<0.01. To assay the transcriptional activity of AP-1, pAP1Luc, a luciferase reporter plasmid containing five sequential AP-1 binding sites upstream of a minimum promoter element, was used. […] To normalize transfection efficiency, a renilla luciferase reporter construct (pRL-TK, Promega) was co-transfected with each of the firefly luciferase constructs. To induced AP-1 activity, cells were exposed to TNFα (10 ng/mL) for 1 hour. Cells were pre- and treated with sulindac, ibuprofen or vehicule control one hour before and four hours after this induction.

increase of CFTR activity (short circuit current, forskolin + IBMX) [3]: increase of CFTR activity
increase of CFTR activity (short circuit current, forskolin + IBMX) ([3]; listed as Sulindac): 46.35%
SMILES: CC1=C(CC(=O)O)c2cc(F)ccc2/C1=C\c1ccc([S+](C)[O-])cc1 (centres unmarked) [sulindac, (Z)-5-fluoro-2-methyl-1-[p-(methylsulfinyl)benzylidene]-indene-3-acetic acid]
degradation of cytosolic IκB induced by TNFα [1]: did not modified this effect; also recorded: did not affect the degradation of IκB
nuclear translocation of NF-κB (nuclear p65 quantity) [2]: not significantly modified; also recorded: did not prevent the nuclear translocation of NF-κB
AP-1 transcriptional activity induced by TNF [4]: causes a decrease in the induction
